Experimental data reported in US9815851B2, “Pyrrolo carboxamides as modulators of orphan nuclear receptor RAR-related orphan receptor-gamma (RORγ, NR1F3) activity and for the treatment of chronic inflammatory and autoimmune diseases” (PHENEX PHARMACEUTICALS AG, priority 2011, dated 2017).
Read-outs that look alike come from different tables or passages of the source.

Columns and labels:
[1] = biological target: T1, RORγ ligand binding domain (LBD) (Homo sapiens, UniProt P51449); assay: TR-FRET Activity Assay (ligand sensing, RORγ-LBD / coactivator peptide interaction, LANCE); assay type: biochemical
T1 construct: made in house; host or cells: E. coli BL-21 (BL3), vector pDEST15
T1 sequence (P51449 269-508 limits assumed): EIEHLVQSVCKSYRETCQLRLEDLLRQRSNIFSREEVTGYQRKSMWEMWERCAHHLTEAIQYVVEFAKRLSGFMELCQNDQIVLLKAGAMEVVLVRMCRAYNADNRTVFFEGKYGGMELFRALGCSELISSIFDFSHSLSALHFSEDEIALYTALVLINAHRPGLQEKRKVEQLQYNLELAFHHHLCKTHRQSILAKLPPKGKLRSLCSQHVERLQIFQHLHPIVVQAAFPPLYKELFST

RORγ = biological target: T2, RORγ (UniProt P51449); assay: RORγ Gal4 Reporter Gene Assay in 293T cells (firefly and renilla luciferase); assay type: cell-based, human
T2 sequence (P51449 1-518): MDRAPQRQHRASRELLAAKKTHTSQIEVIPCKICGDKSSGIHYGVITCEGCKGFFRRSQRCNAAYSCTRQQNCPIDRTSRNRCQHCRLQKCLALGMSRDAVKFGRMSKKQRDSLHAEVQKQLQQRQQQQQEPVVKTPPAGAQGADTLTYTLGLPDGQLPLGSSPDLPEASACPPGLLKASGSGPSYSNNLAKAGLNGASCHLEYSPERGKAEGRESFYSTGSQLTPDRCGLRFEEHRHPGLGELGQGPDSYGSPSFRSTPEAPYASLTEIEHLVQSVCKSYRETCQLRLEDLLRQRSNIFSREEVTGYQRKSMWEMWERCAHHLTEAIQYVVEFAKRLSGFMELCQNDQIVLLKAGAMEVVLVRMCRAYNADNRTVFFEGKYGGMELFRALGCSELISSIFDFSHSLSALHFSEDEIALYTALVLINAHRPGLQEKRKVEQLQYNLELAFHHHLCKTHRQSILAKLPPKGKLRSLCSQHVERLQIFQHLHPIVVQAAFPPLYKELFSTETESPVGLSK

[2] = first value of the cell FRET/FF/REN, TR-FRET activity assay, read-out: pIC50 (FRET) (converted)
[3] = second value of the cell, Gal4 reporter gene assay in 293T cells, firefly luciferase
[4] = third value of the cell, Gal4 reporter gene assay in 293T cells, renilla normalised luciferase

| IC50 [1, 2] [nM] | pIC50 (FF) (RORγ; [3]) | pIC50 (REN) (RORγ; [4]) | SMILES | IC50 [1] [nM] | pIC50 (FF) (RORγ) | pIC50 (REN) (RORγ) |
| --- | --- | --- | --- | --- | --- | --- |
| 1260 | 6.6 | 6.5 | Cc1c(C(=O)NCCc2noc(=O)[nH]2)cc(-c2ccc(S(=O)(=O)NC(C)(C)C)c(C(C)(C)C)c2)n1CC1CCCCC1 [17/331] |  |  |  |
| 200 | 6.4 | 6.4 | Cc1c(C(=O)NCCc2noc(=O)[nH]2)cc(-c2ccc(S(=O)(=O)NC(C)(C)C)c(C(F)(F)F)c2)n1CC1CCCCC1 [17/332] |  |  |  |
| 398 | 6.4 | 6.3 | Cc1c(C(=O)NCCc2noc(=O)[nH]2)cc(-c2ccc(S(=O)(=O)NC(C)(C)C)c(C(C)(C)O)c2)n1CC1CCCCC1 [17/333] |  |  |  |
| 1260 | 5.8 | 5.9 | Cc1c(C(=O)NCCc2nn[nH]n2)cc(-c2ccc(S(=O)(=O)NC(C)(C)C)c(C(C)(C)C)c2)n1CC1CCCCC1 [17/334] |  |  |  |
| 316 | 5.5 | 5.6 | Cc1c(C(=O)NCCc2nn[nH]n2)cc(-c2ccc(S(=O)(=O)NC(C)(C)C)c(C(F)(F)F)c2)n1CC1CCCCC1 [17/335] |  |  |  |
| 1000 | < 4.7 | < 4.7 | Cc1c(C(=O)NCCc2nn[nH]n2)cc(-c2ccc(S(=O)(=O)NC(C)(C)C)c(C(C)(C)O)c2)n1CC1CCCCC1 [17/336] |  |  |  |
| 3160 | 7.2 | 7.2 | Cc1c(C(=O)NCC(C)(C)C(=O)O)cc(-c2cc(C(=O)NC(C)(C)C)cc(C3(C)CC3)c2)n1CC1CCCCC1 [17/338] |  |  |  |
| 1260 | 7.6 | 7.7 | Cc1c(C(=O)N[C@H]2C[C@H](C(=O)O)C2)cc(-c2cc(C(=O)NC(C)(C)C)cc(C3(C)CC3)c2)n1CC1CCCCC1 [17/339] |  |  |  |
| 1580 | 7.1 | 7.1 | Cc1c(C(=O)NCCC(C)(C)C(=O)O)cc(-c2cc(C(=O)NC(C)(C)C)cc(C3(C)CC3)c2)n1CC1CCCCC1 [17/340] |  |  |  |
|  |  |  | Cc1c(C(=O)NCC2(O)CCOCC2)cc(-c2cc(C(=O)NC(C)(C)C)cc(C3(C)CC3)c2)n1CC1CCCCC1 [17/341] | 794 | 6.1/7.4/7.6 | 6.1/7.4/7.6 |
| 631 | 7.3 | 7.5 | Cc1c(C(=O)N2CC(N3CCOCC3)C2)cc(-c2cc(C(C)(C)C)cc(C3(C)CC3)c2)n1CC1CCCCC1 [17/344] |  |  |  |
| 316 | 7.3 | 7.4 | Cc1c(C(=O)NCC2CCN(S(C)(=O)=O)CC2)cc(-c2cc(C(C)(C)C)cc(C3(C)CC3)c2)n1CC1CCCCC1 [17/345] |  |  |  |
|  |  |  | Cc1c(C(=O)NCCN2CCN(C)CC2)cc(-c2cc(C(C)(C)C)cc(C3(C)CC3)c2)n1CC1CCCCC1 [17/346] | 5010 | 5.3/<4.7/<4.7 | 5.3/<4.7/<4.7 |
| 398 | 6.5 | 6.5 | Cc1c(C(=O)NCCN2CCN(S(C)(=O)=O)CC2)cc(-c2cc(C(C)(C)C)cc(C3(C)CC3)c2)n1CC1CCCCC1 [17/347] |  |  |  |
| 316 | 6.9 | 7.0 | Cc1c(C(=O)NCC(C)(C)O)cc(-c2cc(OC(F)(F)F)cc(C3(C)CC3)c2)n1CC1CCCCC1 [17/348] |  |  |  |
| 631 | 6.8 | 6.8 | Cc1c(C(=O)NCC(C)(C)O)cc(-c2cc(OC(F)(F)F)cc(C(=O)NC(C)(C)C)c2)n1CC1CCCCC1 [17/349] |  |  |  |
| 1000 | 7.7 | 7.7 | Cc1c(C(=O)N[C@H]2C[C@H](C(=O)O)C2)cc(-c2cc(OC(F)(F)F)cc(C3(C)CC3)c2)n1CC1CCCCC1 [17/350] |  |  |  |
| 631 | 7.5 | 7.5 | Cc1c(C(=O)NC2CCOCC2)cc(-c2cc(C(=O)NCC(F)(F)F)cc(C3(C)CC3)c2)n1CC1CCCCC1 [17/352] |  |  |  |
| 2000 | 6.8 | 6.8 | Cc1c(C(=O)NCC(C)(C)C(=O)O)cc(-c2cc(C(C)(C)C)nc(C(C)(C)C)n2)n1CC1CCCCC1 [17/353] |  |  |  |
| 1000 | 7.0 | 7.0 | Cc1c(C(=O)N[C@H]2C[C@H](C(=O)O)C2)cc(-c2cc(C(C)(C)C)nc(C(C)(C)C)n2)n1CC1CCCCC1 [17/354] |  |  |  |
|  |  |  | Cc1c(C(=O)NCC(C)(C)O)cc(-c2cc(C3(C)CC3)nc(C(C)(C)C)n2)n1CC1CCCCC1 [17/355] | 316 | 6.5/6.6/6.6 | 6.5/6.6/6.6 |
| 2000 | 6.7 | 6.8 | Cc1c(C(=O)N[C@H]2C[C@H](C(=O)O)C2)cc(-c2cc(C(=O)NCC(F)(F)F)cc(C3(C)CC3)c2)n1CC1CCCCC1 [17/357] |  |  |  |
| 1000 | 6.3 | 6.2 | Cc1c(C(=O)N[C@H]2C[C@H](C(=O)O)C2)cc(-c2cc(C(=O)N[C@@H](C)C(F)(F)F)cc(C3(C)CC3)c2)n1CC1CCCCC1 [17/358] |  |  |  |
| 3160 | 7.4 | 7.4 | Cc1c(C(=O)N[C@H]2C[C@H](C(=O)O)C2)cc(-c2cc(C(=O)N[C@H](C)C(F)(F)F)cc(C3(C)CC3)c2)n1CC1CCCCC1 [17/359] |  |  |  |
| 6310 | 7.3 | 7.4 | Cc1c(C(=O)N[C@H]2C[C@H](C(=O)O)C2)cc(-c2cc(C(=O)NC(C)(C)C(F)(F)F)cc(C3(C)CC3)c2)n1CC1CCCCC1 [17/360] |  |  |  |
| 2000 | 6.4 | 6.4 | Cc1c(C(=O)NCCC(C)(C)C(=O)O)cc(-c2ccc(S(=O)(=O)NC3(C#N)CC3)c(C(F)(F)F)c2)n1CC1CCCCC1 [17/361] |  |  |  |
| 1260 | 5.9 | 5.8 | Cc1c(C(=O)N[C@H]2C[C@H](C(=O)O)C2)cc(-c2ccc(S(=O)(=O)NC3(C#N)CC3)c(C(F)(F)F)c2)n1CC1CCCCC1 [17/362] |  |  |  |
| 1000 | 7.4 | 7.5 | Cc1c(C(=O)NC2CCOCC2)cc(-c2ccc(S(=O)(=O)NC(C)(C)C)c3c(F)cccc23)n1CC1CCCCC1 [17/363] |  |  |  |
| 1000 | 6.9 | 7.0 | Cc1c(C(=O)N[C@H]2C[C@H](C(=O)O)C2)cc(-c2ccc(S(=O)(=O)NC(C)(C)C)c3c(F)cccc23)n1CC1CCCCC1 [17/364] |  |  |  |

| SMILES | IC50 [1, 2] [nM] | pIC50 (FF) (RORγ; [3]) | pIC50 (REN) (RORγ; [4]) | IC50 [1] [nM] | pIC50 (FF) (RORγ) | pIC50 (REN) (RORγ) |
| --- | --- | --- | --- | --- | --- | --- |
| Cc1c(C(=O)NC2CCOCC2)cc(-c2cc(C(=O)NC(C)(C)C)cc(C3(C)CC3)c2)n1CC1CCCCC1 [17/337] | 1000 | 7.7 | 7.8 |  |  |  |
| Cc1c(C(=O)N[C@H]2C[C@H](C(=O)O)C2)cc(-c2cc(OC(F)(F)F)cc(C(=O)NC(C)(C)C)c2)n1CC1CCCCC1 [17/351] | 2000 | 6.8 | 6.9 |  |  |  |
| Cc1c(C(=O)NCC(C)(C)O)cc(-c2cc(C(C)(C)C)nc(C3(C)CC3)n2)n1CC1CCCCC1 [17/356] | 398 | 6.7 | 6.7 |  |  |  |
| Cc1c(C(=O)NCC(C)(C)O)cc(-c2ccc(S(=O)(=O)NC(C)(C)C)c3c(F)cccc23)n1CC1CCCCC1 [17/365] | 1260 | 7.0 | 7.0 |  |  |  |
| Cc1c(C(=O)NCC(C)(C)O)cc(-c2cc(C(C)(C)C)nc3ccccc23)n1CC1CCCCC1 [17/366] | 5010 | 6.6 | 6.3 |  |  |  |
